Experimental data from US6642264B1, “Thiazolobenzoimidazole derivatives” (Yamanouchi Pharmaceutical Co., Ltd., priority 1999, dated 2003).
Counter-ions that a name gives are not always drawn.

Assays:
mGluR1 = molecular target: T1, mGluR1 (Rattus norvegicus, UniProt P23385); experiment: mGluR1 binding test with tritium-labeled ligand on rat cerebellum P2 membrane fraction
T1 construct: from tissue; host or cells: rat (Wistar) cerebellum P2 membrane fraction
Protocol: Rats (Wistar, males, 9 to 12 weeks of age) were decapitated to excise cerebella. After weight measurement, they were homogenized in 7 to 10 volumes of 0.32 M sucrose solution. After 15 minutes of centrifugation at 900×g, the supernatant was preserved in a container (in ice). The precipitate was again homogenized in 0.32 M sucrose solution of the same volume of the first time and centrifuged at 900×g for 15 minutes. The supernatant obtained this time was combined with the previously obtained supernatant and centrifuged at 15,000×g for 20 minutes. The precipitate was homogenized in 5 mM Tris-HCl, pH 7.4, and centrifuged at 15,000×g for 15 minutes. This step was repeated again. The precipitate was homogenized in 50 mM Tris-HCl, pH 7.4, and centrifuged at 15,000×g for 15 minutes. The precipitate was homogenized in an appropriate amount of 50 mM Tris-HCl, pH 7.4, subdivided into small portions and then preserved at −80° C.
The binding test was carried out by the following modified method of Thomsen et al.
As the assay buffer, 50 mM Tris-HCl, 2.5 mM CaCl2, pH 7.4, was used. […] Quantity of the radioactivity was measured using a liquid scintillation counter. […]

mGluR1 α = molecular target: T2, mGluR1 α (Rattus norvegicus, UniProt P23385); experiment: phosphatidylinositol (PI) hydrolysis system using mGluR1 α expression cells; format: cell-based; conditions: read-out: IC50, inhibition of the reaction of glutamic acid in PI hydrolysis system
T2 construct: expressed in transfected cells
T2 sequence (P23385 19-1199): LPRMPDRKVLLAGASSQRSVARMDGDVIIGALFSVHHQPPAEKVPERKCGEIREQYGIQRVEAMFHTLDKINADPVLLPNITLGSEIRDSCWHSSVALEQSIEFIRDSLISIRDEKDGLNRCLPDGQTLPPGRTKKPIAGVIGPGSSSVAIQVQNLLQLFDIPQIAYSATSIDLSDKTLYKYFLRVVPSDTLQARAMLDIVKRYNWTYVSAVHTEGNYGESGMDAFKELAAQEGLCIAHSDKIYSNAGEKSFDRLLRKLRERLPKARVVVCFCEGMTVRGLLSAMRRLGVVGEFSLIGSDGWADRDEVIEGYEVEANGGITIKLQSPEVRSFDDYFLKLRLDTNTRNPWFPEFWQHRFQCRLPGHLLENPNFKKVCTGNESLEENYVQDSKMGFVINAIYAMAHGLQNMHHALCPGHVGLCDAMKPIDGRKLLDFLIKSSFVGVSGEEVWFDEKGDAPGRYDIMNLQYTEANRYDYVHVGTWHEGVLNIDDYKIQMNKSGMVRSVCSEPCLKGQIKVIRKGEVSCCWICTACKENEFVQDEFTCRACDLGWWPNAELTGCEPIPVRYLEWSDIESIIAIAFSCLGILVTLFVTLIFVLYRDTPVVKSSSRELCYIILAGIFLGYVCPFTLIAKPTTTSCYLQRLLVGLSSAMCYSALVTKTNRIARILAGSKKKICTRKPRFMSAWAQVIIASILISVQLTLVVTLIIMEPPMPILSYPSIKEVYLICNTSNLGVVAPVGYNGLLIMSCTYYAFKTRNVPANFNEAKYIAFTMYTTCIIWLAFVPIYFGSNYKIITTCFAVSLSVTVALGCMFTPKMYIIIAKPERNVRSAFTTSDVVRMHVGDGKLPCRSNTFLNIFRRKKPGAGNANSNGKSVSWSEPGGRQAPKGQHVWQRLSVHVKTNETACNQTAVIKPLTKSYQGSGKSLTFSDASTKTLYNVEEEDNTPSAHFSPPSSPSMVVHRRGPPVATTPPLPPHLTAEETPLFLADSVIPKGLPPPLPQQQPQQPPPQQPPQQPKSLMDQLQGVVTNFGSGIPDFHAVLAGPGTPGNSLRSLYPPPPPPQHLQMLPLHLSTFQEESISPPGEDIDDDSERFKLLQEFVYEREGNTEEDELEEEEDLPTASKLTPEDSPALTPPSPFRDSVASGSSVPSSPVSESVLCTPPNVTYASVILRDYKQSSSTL

T1 sequence (P23385 19-1199): as above

| Bmax in the saturation test (mGluR1) | Kd (mGluR1; room temperature, 45 minutes, read-out: KD value in the saturation test) | IC50 (mGluR1 α) | Compound |
| --- | --- | --- | --- |
| 3.9 pmol/mg protein | 47 nM |  | [3H]C([3H])([3H])N(C(=O)c1sc2nc3ccc(N)cc3n2c1C)C1CCCCC1 [[^3H]-6-Amino-N-cyclohexyl-N,3-dimethylthiazolo[3,2-a]benzoimidazole-2-carboxamide] |
|  |  | 20 nM | CN(C(=O)c1cn2c(nc3ccc(NC(=O)CN)cc32)s1)C1CCCCC1 [Example 41, N-Cyclohexyl-6-glycylamino-N-methylthiazolo[3,2-a]benzoimidazole-2-carboxamide dihydrochloride] |
